This is an account of results in ChEMBL document CHEMBL1201862, “PubChem BioAssay data set” (2004).

Test in all cases: NCI tumour cell line growth inhibition, 48 h
The subject of test [1] is UACC-257.
For test [2], the system named is NCI/ADR-RES.
For test [3], the system named is SW-620.
The subject of test [4] is UACC-62.
For test [5], the system named is MDA-MB-231.
For test [6], the system named is HOP-62.
Test [7] has as its system UO-31.
In test [8] the test system is M14.
Test [9] relates to DU-145.
Test [10] concerns OVCAR-5.
Test [11] deals with NCI-H226.
The test system of test [12] is MOLT-4.
In test [13] the test system is RXF 393.
In test [14] the test system is A549.
The subject of test [15] is CAKI-1.
Test [16] deals with Malme-3M.
Test [17] deals with CCRF-CEM.
For test [18], the system named is KM12.
The test system of test [19] is LOX IMVI.
In test [20] the test system is HL-60.

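Test compounds were applied to cells in 96-well plates for 48 hours at 5 doses. GI50: concentration for 50% inhibition of growth.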 Active and inactive are the calls of the source. No stated cut-off is given here; in the data, active = GI50 up to about 1.1 µM and inactive = higher.

`c1ccc2cc(-c3cc(-c4cc(-c5ccc6ccccc6c5)on4)no3)ccc2c1`: the GI50 in [1], in test [2], in [3], in test [4], in [5] and in test [6] was > 100 µM (inactive) throughout. For the same compound, the GI50 in test [7] is 96.8 µM (inactive); in test [8], > 100 µM (inactive); in test [9], > 100 µM (inactive); in test [10] it was > 100 µM (inactive); in test [11], > 100 µM (inactive); in [12], 88.9 µM (inactive). The GI50 was > 100 µM (inactive) in test [13]; > 100 µM (inactive) in [14]; > 100 µM (inactive) in test [15]; > 100 µM (inactive) in [16]; 13.6 µM (inactive) in [17]; > 100 µM (inactive) in test [18]. Moreover, the GI50 in test [19] and in test [20] was > 100 µM (inactive) throughout.
`COc1cc(C2c3cc4c(cc3OC(NCc3ccccc3)C2C)OCO4)cc(OC)c1OC` (stereo not given): the GI50 was 6.92 µM (inactive) in test [1]; 0.258 µM (active) in [2]; 0.331 µM (active) in test [3]; 0.409 µM (active) in test [4]; 0.303 µM (active) in test [5]; 0.553 µM (active) in [6]. In addition, the GI50 was 0.504 µM (active) in test [7]; 0.442 µM (active) in [8]; 0.406 µM (active) in test [9]; 1.09 µM (active) in test [10]; 0.853 µM (active) in test [11]; 0.653 µM (active) in test [12]. The GI50 in test [13] is 0.206 µM (active); in test [14] it was 0.631 µM (active); in test [15], 0.288 µM (active); in test [16] it was 0.254 µM (active); in [17] it was 0.39 µM (active); in test [18] it was 0.377 µM (active). Besides, the GI50 in test [19] was 0.551 µM (active); in test [20] it was 0.277 µM (active).
On to `Nc1ccc(S(=O)(=O)Nc2nc3ccccc3nc2N2CCCCCC2)cc1`, for which the GI50 in test [1] was 32.9 µM (inactive); in test [2] it was 30.8 µM (inactive); in [3], 20 µM (inactive); in test [4], 18.1 µM (inactive); in test [5], 26.9 µM (inactive); in test [6] it was 20 µM (inactive). In addition, the GI50 was 13.2 µM (inactive) in test [7]; 37.2 µM (inactive) in test [8]; 30.9 µM (inactive) in [9]; 38.5 µM (inactive) in test [10]; 34.7 µM (inactive) in [11]; 16 µM (inactive) in test [12]. Also, the GI50 was 16 µM (inactive) in test [13]; 27.7 µM (inactive) in test [14]; 26.4 µM (inactive) in test [15]; 34.4 µM (inactive) in test [16]; 33.5 µM (inactive) in test [17]; 30.9 µM (inactive) in test [18]. Besides, the GI50 in test [19] was 17.3 µM (inactive); in [20], 19.1 µM (inactive).
Consider `CSC(=S)N/N=C(\C)c1cccc(C)n1`, for which the GI50 in [1] is 0.92 µM (active); in [2], 1.36 µM (inactive); in test [3], 0.208 µM (active); in test [4], 0.472 µM (active); in test [5], 1.85 µM (inactive); in test [6] it was 0.953 µM (active). For the same compound, the GI50 in [7] is 1.21 µM (inactive); in [8], 0.312 µM (active); in [9], 0.845 µM (active); in [10] it was 5.77 µM (inactive); in test [11] it was 0.824 µM (active); in test [12], 0.123 µM (active). Further, the GI50 is 0.998 µM (active) in [13]; 0.762 µM (active) in test [14]; 1.1 µM (active) in test [15]; 0.809 µM (active) in test [16]; 0.0124 µM (active) in test [17]; 2.26 µM (inactive) in test [18]. Moreover, the values for the GI50 in test [19] and in [20] were 1.13 µM (inactive) and 0.0764 µM (active), respectively.
Take `N#Cc1cnn2ccn(C3OC(COC(=O)c4ccccc4)C(OC(=O)c4ccccc4)C3OC(=O)c3ccccc3)c12` (stereo not given): the GI50 in test [1], in [2], in test [3], in test [4], in test [5] and in [6] was > 21.5 µM (inactive) each time. For the same compound, the GI50 in [7], in test [8], in test [9], in test [10], in test [11] and in [12] was > 21.5 µM (inactive) each time. Besides, the GI50 was > 21.5 µM (inactive) in test [13]; > 21.5 µM (inactive) in test [14]; 17.2 µM (inactive) in test [15]; > 21.5 µM (inactive) in test [16]; > 21.5 µM (inactive) in [17]; 17.3 µM (inactive) in test [18]. The GI50 is > 31.6 µM (inactive) in test [19] and > 21.5 µM (inactive) in test [20].
Turning to `Cc1nccn1S(=O)(=O)c1ccc(Cl)cc1`, the GI50 in test [1] is 42.5 µM (inactive); in test [2], 43.6 µM (inactive); in test [3], 65.2 µM (inactive); in test [4] it was 55.6 µM (inactive); in test [5], 31.9 µM (inactive); in [6], 58.2 µM (inactive). In addition, the GI50 was 58.3 µM (inactive) in test [7]; 41.7 µM (inactive) in test [8]; 81.8 µM (inactive) in [9]; 64.6 µM (inactive) in [10]; 74.8 µM (inactive) in test [11]; 56.9 µM (inactive) in test [12]. The GI50 in test [13] is 52 µM (inactive); in test [14], > 100 µM (inactive); in test [15], 42 µM (inactive); in [16], 34.8 µM (inactive); in test [17] it was 41 µM (inactive); in [18], 42.5 µM (inactive). Further, the GI50 was 41.5 µM (inactive) in [19] and 22.9 µM (inactive) in [20].
`CCOC(=O)[C@@]12CCC(C1=O)[C@](C)(O)C[C@@H]2c1ccccc1`: the GI50 in test [1] was 75 µM (inactive); in test [2] it was 29 µM (inactive); in [3], > 100 µM (inactive); in [4] it was 29.7 µM (inactive); in test [5], 36.5 µM (inactive); in test [6] it was 71.1 µM (inactive). Besides, the GI50 in test [7] was > 100 µM (inactive); in test [8] it was 27.7 µM (inactive); in [9], 85.9 µM (inactive); in test [10] it was 80.9 µM (inactive); in [11] it was > 100 µM (inactive); in test [12], 30.5 µM (inactive). Besides, the GI50 is 29.3 µM (inactive) in test [13]; 50.4 µM (inactive) in test [14]; 39.2 µM (inactive) in [15]; 37.6 µM (inactive) in test [16]; 79.4 µM (inactive) in test [17]; 31.8 µM (inactive) in test [18]. The GI50 in [19] is 48.6 µM (inactive); in [20], 24.3 µM (inactive).
On to `Cn1cnc(N2CCCC2)c(C#N)c1=S`, for which the GI50 in test [1], in [2], in [3], in test [4], in test [5] and in test [6] was > 100 µM (inactive) each time. For the same compound, the GI50 is 23.2 µM (inactive) in test [7]; > 100 µM (inactive) in test [8]; > 100 µM (inactive) in [9]; > 100 µM (inactive) in [10]; > 100 µM (inactive) in test [11]; > 100 µM (inactive) in test [12]. For the same compound, the GI50 in test [13] was > 100 µM (inactive); in test [14] it was > 100 µM (inactive); in test [15] it was 35.9 µM (inactive); in test [16], > 100 µM (inactive); in [17] it was > 100 µM (inactive); in [18], > 100 µM (inactive). Moreover, the GI50 in [19] and in test [20] was > 100 µM (inactive) in each case.
As to `NCCCn1c2ccccc2c2c3c(c4c(c21)CCC(O)CC4)C(=O)NC3=O` (stereo not given), the GI50 in test [1] was 14.8 µM (inactive); in test [2] it was 13 µM (inactive); in test [3], 1.04 µM (active); in test [4], 4.12 µM (inactive); in test [5] it was 1.85 µM (inactive); in test [6], 2.5 µM (inactive). In addition, the GI50 was 6.27 µM (inactive) in test [7]; 4.48 µM (inactive) in test [8]; 3.7 µM (inactive) in test [9]; 2.24 µM (inactive) in test [10]; 2.74 µM (inactive) in test [11]; 1.53 µM (inactive) in test [12]. Besides, the GI50 in test [13] was 2.15 µM (inactive); in test [14], 4.86 µM (inactive); in test [15] it was 3.66 µM (inactive); in test [16] it was 2.14 µM (inactive); in [17], 0.962 µM (active); in [18], 0.458 µM (active). Also, the GI50 in [19] is 1.01 µM (active); in test [20], 9.12 µM (inactive).
For the compound `Brc1ccc2c(-c3csc(-c4c[nH]c5cc(Br)ccc45)n3)c[nH]c2c1`, the GI50 in test [1] is > 65.9 µM (inactive); in test [2], 16 µM (inactive); in [3], 16 µM (inactive); in [4] it was 40.5 µM (inactive); in test [5], 21 µM (inactive); in [6], 37.2 µM (inactive). Besides, the GI50 in test [7] is 55.3 µM (inactive); in test [8], 17.7 µM (inactive); in test [9], 19.5 µM (inactive); in test [10], 26.6 µM (inactive); in [11], 30.5 µM (inactive); in [12], 12.1 µM (inactive). In addition, the GI50 in [13] was 23.4 µM (inactive); in [14] it was 19.5 µM (inactive); in [15], 43.6 µM (inactive); in test [16] it was 28.4 µM (inactive); in [17], 10.2 µM (inactive); in [18] it was 11.8 µM (inactive). Also, the GI50 in test [19] is 20.9 µM (inactive); in [20], 5.69 µM (inactive).
